Source: patent US20250213547A1, “METHODS OF TREATING NEUROLOGICAL DISEASES” (priority 2022, published 2025)
Like-named read-outs stand apart in the source and are kept apart here.

Tests used:
plasma 24HC = assay: Single dose pharmacodynamics: plasma 24HC; format: in vivo, human
Method: The concentration of 24HC was measured by obtaining an 8 ml blood sample collected 30 minutes pre-dose time and 0.5, 1, 2, 4, 6, 8, 12, and 16 hours prior to dosing day, and then 30 minutes pre-dose time and at times 0.5, 1, 2, 4, 6, 8, 12, 16, 24, 48, 72, and 96 hours post-dose. Plasma 24HC levels were measured by incubating plasma in sodium hydroxide and methanol and then performing liquid-liquid extraction and HPLC-MS/MS multiple reaction monitoring. […] Assay quality control measures, parameter analyses, and statistical analyses were performed as described in example 3. […] All dosage groups returned to 24HC baseline values by 96 hours.

[1] = Multiple rising dose study: safety (TEAEs) in healthy subjects over 14 days; format: in vivo, human
Method: Subjects were monitored during the study and a full review was conducted after each rising dose. Safety data monitoring included vitals, physical and visual examinations, electrocardiogram, BMI, and clinical laboratory tests. […] Percentages are rounded to one decimal place. A subject with two or more different adverse events (AE) within the same levels of the MedDRA term and treatment is counted only once at that level using the most related or severe incident. A TEAE is defined as an AE or SAE that occurs or gets worse after receiving the first dose of study drug and within 30 days after the last dose of study drug.

[2] = for Avg. CFBL 24HC / Max. CFBL 24HC: Table 34, ELEKTRA patients, steady-state; for Avg. Ch. f. BL. 24HC / Max. Red. f. BL. 24HC: Table 34A, ELEKTRA (TAK-935-2002)
Excerpt: Other inclusion criteria were body weight ≥10 kg, currently taking a fixed dosage of 1 to 4 antiseizure medications, and failure to remain seizure free after trying at least two antiseizure medications. Convulsive seizures include focal to bilateral tonic-clonic with impaired awareness, hemi-clonic, simultaneous bilateral clonic, and generalized tonic-clonic seizures. Drop seizures can involve the entire body, trunk, or head which leads to falling. […] Approximately 126 patients ages ≥2 and ≤17 years were enrolled in the study. The study included two main phases, a 4-6 week screening and baseline period, and a 20-week treatment period. Patients received doses twice a day in a tablet formulation. The starting dose was adjusted according to the patient's body weight (Table 17).
During the first 8 weeks of treatment patient dosing was a titrated for individual optimization. The remaining 12-weeks of treatment consisted of a maintenance phase. The study began with treating patients ≥9 years of age for one month before treating younger patients. Blood was collected for PK analysis on the first dosage day within one hour of the morning dose, and 30 minutes, and 1, 2, 3, and 4 hours post-dose. Subsequent blood sampling took place before the morning dose and 30 minutes post-dose. Blood samples were obtained at scheduled times for determining PK profile and Tmax, which is the time Cmax was reached. A patient's seizure frequency was recorded before and during the trial to calculate percent change from baseline.
The PK model parameters can be used as a tool to estimate PK and drug exposure in an individual or a population (such as with ELEKTRA), as well as to calculate individualized dosing based on covariates. For example, optimal daily dosing can be calculated using the area under the concentration time curve and clearance values (dose=targetAUC24×CL). Blood sampling at steady-state was limited in the ELEKTRA study, thus some of the PK parameters shown in Table 32 for the ELEKTRA population were simulated by interpolation.
The dots represent the simulation and the numbers below the dot represent the simulated covariate value, while the values above the dots show the percent change from the reference level. The vertical line labeled “ref” depicts the reference level. […] The CV % refers to the coefficient of variation assuming a log-normal distribution, derived as […], where σ denotes the standard deviation of the log-transformed values.
The term AUC(0-tau) stands for AUC to the end of the dosing period. The covariate effects were analyzed using exposure parameters AUC, Cmax, and Ctrough.

[3] = Eq. Dose 100 mg (N = 70), Median
[4] = Eq. Dose 100 mg (N = 70), Range
[5] = Eq. Dose 200 mg (N = 68), Median
[6] = Eq. Dose 200 mg (N = 68), Range
[7] = Eq. Dose 300 mg (N = 56), Median
[8] = Eq. Dose 300 mg (N = 56), Range
[9] = Equiv. Dose 100 mg BID, N = 70, Mean
[10] = Equiv. Dose 100 mg BID, N = 70, Median
[11] = Equiv. Dose 100 mg BID, N = 70, Range
[12] = Equiv. Dose 200 mg BID, N = 68, Mean
[13] = Equiv. Dose 200 mg BID, N = 68, Median
[14] = Equiv. Dose 200 mg BID, N = 68, Range
[15] = Equiv. Dose 300 mg BID, N = 56, Mean
[16] = Equiv. Dose 300 mg BID, N = 56, Median
[17] = Equiv. Dose 300 mg BID, N = 56, Range

O=C(c1cccnc1-c1ccncc1)N1CCC(O)(Cc2ccccc2)CC1 [soticlestat]
maximum 24HC decrease (plasma 24HC; 900 mg single dose, 16 hours post-dose): approximately 23% | AUEC96 decrease compared to placebo (plasma 24HC; single dose): approximately 28.7% | Deaths, number of subjects (%) ([1]; 100 mg QD, n = 6): 0 subjects (%) | Deaths, number of subjects (%) ([1]; 300 mg BID, n = 6): 0 subjects (%) | Deaths, number of subjects (%) ([1]; 300 mg QD, n = 6): 0 subjects (%) | Deaths, number of subjects (%) ([1]; 400 mg QD, n = 6): 0 subjects (%) | Mild TEAEs, number of subjects (%) ([1]; 400 mg QD, n = 6): 4 (66.7) subjects (%) | Related TEAEs, number of subjects (%) ([1]; 400 mg QD, n = 6): 4 (66.7) subjects (%) | Deaths, number of subjects (%) ([1]; 600 mg QD, n = 6): 0 subjects (%) | Mild TEAEs, number of subjects ([1]; both, human, in vivo, 14 days): 12 subjects | Moderate TEAEs, number of subjects ([1]; both, human, in vivo, 14 days): 1 subjects | TEAEs mild and transient ([1]; both, human, in vivo, 14 days): 91% | TEAEs, number of subjects ([1]; both, human, in vivo, 14 days): 14 subjects | number of TEAEs reported ([1]; human, in vivo): Forty-five | Not related TEAEs, number of subjects ([1]; human, in vivo, 14 days): 1 subjects | Related TEAEs, number of subjects ([1]; human, in vivo, 14 days): 13 subjects | SAEs, number of subjects ([1]; human, in vivo, 14 days): 0 subjects | Severe TEAEs, number of subjects ([1]; human, in vivo, 14 days): 1 subjects | TEAEs leading to halt, number of subjects ([1]; human, in vivo, 14 days): 2 subjects | Deaths, number of subjects ([1]; soticlestat total, n = 30): 0 subjects | Avg. CFBL 24HC ([2]; Eq. Dose 100 mg (N = 70), Mean): −69.4% | Max. CFBL 24HC ([2]; Eq. Dose 100 mg (N = 70), Mean): −69.6% | Avg. CFBL 24HC [2, 3]: −70.8% | Max. CFBL 24HC [2, 3]: −71% | Avg. CFBL 24HC [2, 4]: −86.9-−42.2% | Max. CFBL 24HC [2, 4]: −87-−42.6% | Avg. CFBL 24HC ([2]; Eq. Dose 200 mg (N = 68), Mean): −78.6% | Max. CFBL 24HC ([2]; Eq. Dose 200 mg (N = 68), Mean): −78.7% | Avg. CFBL 24HC [2, 5]: −80.7% | Max. CFBL 24HC [2, 5]: −80.8% | Avg. CFBL 24HC [2, 6]: −89.7-−54.7% | Max. CFBL 24HC [2, 6]: −89.8-−55% | Avg. CFBL 24HC ([2]; Eq. Dose 300 mg (N = 56), Mean): −82% | Max. CFBL 24HC ([2]; Eq. Dose 300 mg (N = 56), Mean): −82.1% | Avg. CFBL 24HC [2, 7]: −84% | Max. CFBL 24HC [2, 7]: −84.1% | Avg. CFBL 24HC [2, 8]: −90.9-−64.1% | Max. CFBL 24HC [2, 8]: −90.9-−64.4% | Avg. Ch. f. BL. 24HC [2, 9]: −67.38% | Max. Red. f. BL. 24HC [2, 9]: −67.65% | Avg. Ch. f. BL. 24HC [2, 10]: −70.08% | Max. Red. f. BL. 24HC [2, 10]: −70.39% | Avg. Ch. f. BL. 24HC [2, 11]: −86.70-−10.05% | Max. Red. f. BL. 24HC [2, 11]: −86.77-−10.19% | Avg. Ch. f. BL. 24HC [2, 12]: −76.77% | Max. Red. f. BL. 24HC [2, 12]: −76.97% | Avg. Ch. f. BL. 24HC [2, 13]: −80.21% | Max. Red. f. BL. 24HC [2, 13]: −80.37% | Avg. Ch. f. BL. 24HC [2, 14]: −89.03-−18.58% | Max. Red. f. BL. 24HC [2, 14]: −89.07-−18.80% | Avg. Ch. f. BL. 24HC [2, 15]: −79.95% | Max. Red. f. BL. 24HC [2, 15]: −80.11% | Avg. Ch. f. BL. 24HC [2, 16]: −82.50% | Max. Red. f. BL. 24HC [2, 16]: −82.65% | Avg. Ch. f. BL. 24HC [2, 17]: −89.98-−23.43% | Max. Red. f. BL. 24HC [2, 17]: −90.00-−23.69%
